Key:
[1] = system: tonic extensor seizures elicited by maximal electroshock; assay: electroshock induced convulsion inhibition assay (E.S.); assay type: in vivo, Cox standard strain albino male mice; conditions: mice; for ED50: Mus musculus, oral dose (gavage), 0.2 second, 50 milliampere corneal electroshock, inhibition of extensor tonic convulsions in half of the animals, at time of optimal response; for Time after dosing providing an approximately optimal response: oral gavage, time between dosing and administration of the electroshock
Procedure: In the electroshock induced convulsion inhibition assay (E.S.), the compound to be tested was suspended in acacia and administered by gavage to each of ten Cox standard strain albino male mice (18-24 g) at the dose level being investigated. Thirty to 180 minutes after compound administration, the mice were subjected to a 0.2 second, 50 milliampere electroshock through corneal electrodes. The animals were examined and evaluated immediately after the electroshock for the occurrence of clonic, flexor tonic, or extensor tonic convulsions, or death and the ED50 was determined for each compound as the dose which inhibited the occurrence of extensor tonic convulsions in one half of the animals immediately after the electroshock. For comparison, 18 milliamperes was usually sufficient to produce extensor tonic convulsions in about half of the control animals; at 50 milliamperes, almost all control animals (receiving vehicle only) died. The test results summarized in Table I are reported as the ED50 values calculated by computer interpolation of fixed doses at the time interval found to provide an optimal response after dosing. For comparison purposes, N-(2,6-dimethylphenyl)-3-pyridinecarboxamide, taught as an intermediate in Example 4 of U.S. Pat. No. 4,361,572, was also evaluated--this compound is referred to in Table I below as Compound A.

seizures = conditions: man; cited from earlier work

Row | SMILES | ED50 [1] [mg/kg] | Time after dosing providing an approximately optimal response [1] [min] | plasma level that controls seizures (seizures) [µg/mL]
1 | Cc1cccc(C)c1NC(=O)c1cccnc1 [Compound A, N-(2,6-dimethylphenyl)-3-pyridinecarboxamide, reference compound] | 24.5 | 30 | –
2 | Cc1cccc(C)c1NC(=O)c1ccc(Cl)nc1 [Example 1, 6-Chloro-N-(2,6-dimethylphenyl)-3-pyridinecarboxamide] | 31.7 | 30 | –
3 | Cc1ccc(C(=O)Nc2c(C)cccc2C)cn1 [Example 2, N-(2,6-Dimethylphenyl)-6-methyl-3-pyridinecarboxamide] | 6.7 | 60 | –
4 | Cc1ccc(C(=O)Nc2c(C)cccc2Cl)cn1 [Example 3, N-(2-Chloro-6-methylphenyl)-6-methyl-3-pyridinecarboxamide] | 20.2 | 60 | –
5 | CNc1ccc(C(=O)Nc2c(C)cccc2C)cn1 [Example 4, 6-(Methylamino)-N-(2,6-dimethylphenyl)-3-pyridinecarboxamide] | 8.7 | 60 | –
6 | O=C1NC(=O)C(c2ccccc2)(c2ccccc2)N1 [phenytoin] | – | – | ≥ 10

Source: patent US4973597A, “Anticonvulsant agents” (Eli Lilly and Company, priority 1989, dated 1990)
